Laboratory results taken from US12084462B2, “Spiro bicyclic inhibitors of menin-MLL interaction” (Janssen Pharmaceutica NV, priority 2016, dated 2024).
Read-outs that look alike come from different tables or passages of the source.

Tests used:
MV-4-11 = assay: Proliferation assay (spheroid assay) MV-4-11; type: cell-based, human; details: Homo sapiens, MV4-11, MV-4-11; averaged values; read-out: Spheroid assay MV-4-11 (IC50 (μM))
Procedure: (§1) The anti-proliferative effect of menin/MLL protein/protein interaction inhibitor test compounds was assessed in human leukemia cell lines. The cell lines MV-4-11 and MOLM14 harbor MLL translocations and express the MLL fusion proteins MLL-AF4 and MLL-AF9, respectively, as well as the wildtype protein from the second allele. […] K562 and KG1 were used as a control cell lines containing two MLL wildtype alleles in order to exclude compounds that display general cytotoxic effects.
(§2) MV-4-11 and MOLM14 were cultured in RPMI-1640 (Sigma Aldrich) supplemented with 10% fetal bovine serum (HyClone), 2 mM L-glutamine (Sigma Aldrich) and 50 μg/ml gentamycin (Gibco). K562 were propagated in RPMI-1640 (Sigma Aldrich) supplemented with 20% fetal bovine serum (HyClone), 2 mM L-glutamine (Sigma Aldrich) and 50 μg/ml gentamycin (Gibco). KG1 were cultured in Iscove's MDM (Gibco) supplemented with 20% fetal bovine serum (HyClone), 2 mM L-glutamine (Sigma Aldrich) and 50 μg/ml gentamycin (Gibco).
(§3) In order to assess the anti-proliferative effects, 1,500 MV-4-11, 300 MOLM14, 750 K562 or 1,300 KG1 cells were seeded in 200 μl media per well in 96-well round bottom, ultra-low attachment plates (Costar, catalogue number 7007). Cell seeding numbers were chosen based on growth curves to ensure linear growth throughout the experiment. Test compounds were added at different concentrations and the DMSO content was normalized to 0.3%. Cells were incubated for 8 d at 37° C. and 5% CO2. Spheroid like growth was monitored in real-time by live-cell imaging (IncuCyteZOOM, Essenbio, 4× objective) acquiring one image every four hours for 8 d. Confluence (%) as a measure of spheroid size was determined using an integrated analysis tool.
(§4) In order to determine the cumulative effect of the test compounds over time, the area under the curve (AUC) in a plot of confluence against time was calculated. Confluence at the beginning of the experiment (t=0) was used as baseline for the AUC calculation.
(§5) Absolute IC50 values were calculated according to the following procedure: % Control=(AUC sample/AUC control)*100 AUC control=mean AUC of control values (cells without compound/DMSO as vehicle control)
(§6) A non-linear curve fit was applied using the least squares (ordinary) fit method to the plot of % control versus compound concentration. Based on this, the absolute IC50 value (half maximal inhibitory concentration of the test compound causing an anti-proliferative effect of 50% relative to the vehicle control) was calculated.

MOLM14 = assay: Proliferation assay (spheroid assay) MOLM14; type: cell-based, human; details: Homo sapiens
Procedure: as §1, §2, §3, §4, §5, §6

Compound | IC50 (MV-4-11) | further results
CC(c1cn[nH]c1)N1CC2(CCN(c3ncnc4sc(CC(F)(F)F)cc34)C2)C1 (centres unmarked) [Compound 223] | 6.1 µM | –
Cn1cc2c(n1)CCCC2N1CC2(CCN(c3ncnc4sc(CC(F)(F)F)cc34)C2)C1 (single isomer, unassigned) [Compound 137] | 10.1 µM | IC50 (MOLM14; MOLM-14, MOLM14, averaged values, read-out: Spheroid assay MOLM14 (IC50 (μM))): > 15 µM
CC(C)CCN1CC[C@]2(CCN(c3ncnc4sc(CC(F)(F)F)cc34)C2)C1 (single isomer, unassigned) [Compound 294] | 1.83 µM | –
C[C@@H](C1CCNCC1)N1CC2(CCN(c3ncnc4sc(CC(F)(F)F)cc34)C2)C1 [Compound 146] | 2.4 µM | –
CC(Cc1cccc(F)c1)N1CC2(CCN(c3ncnc4sc(CC(F)(F)F)cc34)C2)C1 (centres unmarked) [Compound 183] | 1.3 µM | –
CC(C)C(C1CNC1)N1CC2(CCN(c3ncnc4sc(CC(F)(F)F)cc34)C2)C1 (centres unmarked) [Compound 222] | 0.2 µM | –
CC[C@@H](C)[C@@H](c1cnn(C)c1)N1CC2(CCN(c3ncnc4sc(CC(F)(F)F)cc34)C2)C1 (single isomer, unassigned) [Compound 237] | 1.2 µM | –
Cc1ccc(CN2CC3(CCN(c4ncnc5sc(CC(F)(F)F)cc45)C3)C2)cc1 [Compound 49] | 2.1 µM | –
CN1CC2(CC2)C[C@H]1C(=O)N1CC2(C1)CN(c1ncnc3sc(CC(F)(F)F)cc13)C2 [Compound 108] | > 15 µM | –
CC(C)C(C1CCNCC1)N1CC2(CCN(c3ncnc4sc(CC(F)(F)F)cc34)C2)C1 (centres unmarked) [Compound 148] | 0.33 µM | –
CC(C)C[C@H](C1CCOCC1)N1CC2(CCN(c3ncnc4sc(CC(F)(F)F)cc34)C2)C1 [Compound 179] | 1.3 µM | –
Cn1cc(CN2CC[C@]3(CCN(c4ncnc5sc(CC(F)(F)F)cc45)C3)C2)cn1 (single isomer, unassigned) [Compound 299] | 3.18 µM | –
CC(C)CC(C1CCC2(CCCC2)OC1)N1CC2(CCN(c3ncnc4sc(CC(F)(F)F)cc34)C2)C1 (single isomer, unassigned) [Compound 313] | 3.6 µM | –
FC(F)(F)Cc1cc2c(N3CCC4(CN(CCc5ccccc5)C4)C3)ncnc2s1 [Compound 69] | 1.2 µM | –
CC(Cc1cc(F)cc(F)c1)N1CC2(CCN(c3ncnc4sc(CC(F)(F)F)cc34)C2)C1 (centres unmarked) [Compound 170] | 4.3 µM | –
CC(Cc1ccc(O)cc1)N1CC2(CCN(c3ncnc4sc(CC(F)(F)F)cc34)C2)C1 (centres unmarked) [Compound 323] | 0.75 µM | –
Cn1cc([C@H](C2CCNCC2)N2CC3(CCN(c4ncnc5sc(CC(F)(F)F)cc45)C3)C2)cn1 [Compound 202] | > 15 µM | –
C[C@H](C1CCNCC1)N1CC2(CCN(c3ncnc4sc(CC(F)(F)F)cc34)C2)C1 [Compound 147] | 8.2 µM | –
COc1cccc(CC(C)N2CC3(CCN(c4ncnc5sc(CC(F)(F)F)cc45)C3)C2)c1 (centres unmarked) [Compound 320] | 1.37 µM | –
FC(F)(F)Cc1cc2c(N3CC[C@@]4(CCN(CCc5ccccc5)C4)C3)ncnc2s1 (single isomer, unassigned) [Compound 296] | 4.89 µM | –

Compound | IC50 (MV-4-11) | further results
CC(Cc1ccc(C#N)cc1)N1CC2(CCN(c3ncnc4sc(CC(F)(F)F)cc34)C2)C1 (centres unmarked) [Compound 314] | 0.73 µM | –
FC(F)(F)Cc1cc2c(N3CC[C@]4(CCN(CC5CCOCC5)C4)C3)ncnc2s1 [Compound 187] | 1.4 µM | –
COCCn1cc(C(C(C)C)N2CC3(CCN(c4ncnc5sc(CC(F)(F)F)cc45)C3)C2)cn1 (centres unmarked) [Compound 71] | 1.1 µM | –
O=C([C@H]1CC2(CC2)CN1)N1CC2(C1)CN(c1ncnc3sc(CC(F)(F)F)cc13)C2 [Compound 109] | 8.1 µM | –
Fc1ccccc1CN1CC2(CCN(c3ncnc4sc(CC(F)(F)F)cc34)C2)C1 [Compound 54] | 3.7 µM | –
CC(C)[C@@H](C1CCOCC1)N1CC2(CCN(c3ncnc4sc(CC(F)(F)F)cc34)C2)C1 [Compound 162] | 3.1 µM | –
CCC(C1CNC1)N1CC2(CCN(c3ncnc4sc(CC(F)(F)F)cc34)C2)C1 (centres unmarked) [Compound 259] | 1.3 µM | –
COc1ccc(CC(C)N2CC3(CCN(c4ncnc5sc(CC(F)(F)F)cc45)C3)C2)cc1 (centres unmarked) [Compound 321] | 1.1 µM | –
CC(C)[C@@H](C1CCNCC1)N1CC2(CCN(c3ncnc4sc(CC(F)(F)F)cc34)C2)C1 [Compound 169] | 3.5 µM | –
Cc1ccc(CC(C)N2CC3(CCN(c4ncnc5sc(CC(F)(F)F)cc45)C3)C2)cc1 (centres unmarked) [Compound 324] | 1.9 µM | –
CC(Cc1ccccc1F)N1CC2(CCN(c3ncnc4sc(CC(F)(F)F)cc34)C2)C1 (centres unmarked) [Compound 322] | 1.7 µM | –
CC(C)[C@@H](c1cnn(C)c1)N1CC2(CCN(c3ncnc4sc(CC(F)(F)F)cc34)C2)C1 [Compound 203] | 7.2 µM | –
Cc1c([C@@H](C(C)C)N2CC3(CCN(c4ncnc5sc(CC(F)(F)F)cc45)C3)C2)cnn1C [Compound 173] | 3.2 µM | –
CO[C@H]1CN[C@H](C(=O)N2CC3(C2)CN(c2ncnc4sc(CC(F)(F)F)cc24)C3)C1 [Compound 111] | 9.3 µM | –
Cn1cc2c(n1)CCCC2N1CC2(CCN(c3ncnc4sc(CC(F)(F)F)cc34)C2)C1 (single isomer, unassigned) [Compound 138] | – | IC50 (MOLM14; MOLM-14, 192 h, MOLM14 (MLL-AF9), 8 d, absolute IC50 from AUC of confluence, individual measurements (not averaged), read-out: (2) Spheroid assay MOLM14 (IC50 (μM))): 7 µM
CC(C)C(c1cnn(C)c1)N1CC[C@]2(CCN(c3ncnc4sc(CC(F)(F)F)cc34)C2)C1 (some centres unmarked) [Compound 186] | 1.3 µM | –
Cc1ccccc1CN1CC2(CCN(c3ncnc4sc(CC(F)(F)F)cc34)C2)C1 [Compound 45] | 3.4 µM | –
CC(C)[C@H](c1cnn(C)c1)N1CC[C@]2(CCN(c3ncnc4sc(CC(F)(F)F)cc34)C2)C1 (single isomer, unassigned) [Compound 188] | 1.5 µM | –
Cc1cccc(CN2CC3(CCN(c4ncnc5sc(CC(F)(F)F)cc45)C3)C2)c1 [Compound 46] | 4.1 µM | –
Fc1ccc(CCN2CC[C@@]3(CCN(c4ncnc5sc(CC(F)(F)F)cc45)C3)C2)cc1 (single isomer, unassigned) [Compound 298] | 4.23 µM | –

Compound | IC50 (MV-4-11) | further results
CC(C)CN1CCC2(C1)CN(c1ncnc3sc(CC(F)(F)F)cc13)C2 [Compound 58] | 2.7 µM | –
Cc1ccc(CC(C2CNC2)N2CC3(CCN(c4ncnc5sc(CC(F)(F)F)cc45)C3)C2)cc1 (centres unmarked) [Compound 318] | 1.09 µM | –
CC[C@@H](C)[C@H](c1cnn(C)c1)N1CC2(CCN(c3ncnc4sc(CC(F)(F)F)cc34)C2)C1 (single isomer, unassigned) [Compound 235] | 0.71 µM | –
NCCn1cc(CN2CC3(CCN(c4ncnc5sc(CC(F)(F)F)cc45)C3)C2)cn1 [Compound 77] | 12.1 µM | –
CC(C)CCN1CC[C@@]2(CCN(c3ncnc4sc(CC(F)(F)F)cc34)C2)C1 (single isomer, unassigned) [Compound 293] | 1.67 µM | –
Cc1nn(C)cc1[C@@H](C(C)C)N1CC2(CCN(c3ncnc4sc(CC(F)(F)F)cc34)C2)C1 [Compound 166] | 2.4 µM | –
CC(C)C[C@@H](C1CCOCC1)N1CC2(CCN(c3ncnc4sc(CC(F)(F)F)cc34)C2)C1 [Compound 180] | 1.9 µM | –
FC(F)(F)Cc1cc2c(N3CCC4(CN(CC5CCNCC5)C4)C3)ncnc2s1 [Compound 311] | 2.4 µM | –
CC(C)C(C1CCOCC1)N1CC2(CCN(c3ncnc4sc(CC(F)(F)F)cc34)C2)C1 (centres unmarked) [Compound 156] | 0.79 µM | –
CC(C)C[C@@H](C1CNC1)N1CC2(CCN(c3ncnc4sc(CC(F)(F)F)cc34)C2)C1 [Compound 213] | 1.9 µM | –
FC(F)(F)Cc1cc2c(N3CCC4(CN(CCC5CCOCC5)C4)C3)ncnc2s1 [Compound 67] | 4.9 µM | –
Cc1nn(C)cc1C(C(C)C)N1CC2(CCN(c3ncnc4sc(CC(F)(F)F)cc34)C2)C1 (centres unmarked) [Compound 161] | 4.2 µM | –
Cc1c(C(C(C)C)N2CC3(CCN(c4ncnc5sc(CC(F)(F)F)cc45)C3)C2)cnn1C (centres unmarked) [Compound 172] | 2.9 µM | –
CO[C@@H]1CN[C@H](C(=O)N2CC3(C2)CN(c2ncnc4sc(CC(F)(F)F)cc24)C3)C1 [Compound 110] | 4 µM | –
C[C@H](C1CNC1)N1CC2(CCN(c3ncnc4sc(CC(F)(F)F)cc34)C2)C1 [Compound 150] | 2 µM | –
Fc1cccc(CN2CC3(CCN(c4ncnc5sc(CC(F)(F)F)cc45)C3)C2)c1 [Compound 56] | 4.9 µM | –
FC(F)(F)Cc1cc2c(N3CC[C@@]4(CCN(CC5CCOCC5)C4)C3)ncnc2s1 [Compound 185] | 1.3 µM | –
COc1ccccc1CC(C)N1CC2(CCN(c3ncnc4sc(CC(F)(F)F)cc34)C2)C1 (centres unmarked) [Compound 171] | 3.1 µM | –
